From patent US11260042B2, “Pharmaceutical combination for the treatment of cancer” (ABILITY PHARMACEUTICALS S.L., priority 2017, dated 2022)
pIC50: −log10 of the molar value. Read-outs that look alike come from different tables or passages of the source. One block for each molecule: values may come before it.

Legend:
[1] = assay type: in vivo
Experimental: Methods: Forty-five female CD-1 mice were distributed by means of the body weight stratification method into nine experimental groups (A-I) (5 animals for group) that differed in the treatment or in the day on which the reference items (paclitaxel and carboplatin) were administered.
The table below summarizes the treatment groups. Please note that the same administration schedule and doses were administered as in the previous efficacy studies.
The safety assessment relied on observed mortality, local and systemic clinical signs, body weight and food consumption recorded throughout the whole study. In addition, clinical pathology determinations (biochemistry and hematology) were performed before sacrifice in all animals. At the end of the observation period (one day after the last administration), all surviving animals were sacrificed and subjected to a gross necropsy. Moreover, the safety assessment was also based on the weight of selected target organs collected at sacrifice.

[2] = system: SH-SY5Y human neuroblastoma xenograft; assay type: in vivo, Nu/nu female mice
Experimental: Methods: Immunodeficient athymic NMRI-Foxn1^nu/Foxn1^nu nude mice were subcutaneously injected with SH-SY5Y cells. This cell line was genetically modified to express luciferase, which would allow the in vivo study not only of tumor size, but also of metastasis formation. When tumors reached an average volume of 80 mm^3, mice were randomly distributed into different treatment groups. ABTL0812 was administered orally at 120 mg/kg daily. In parallel we used cisplatin, a drug included in the chemotherapy induction phase for the treatment of neuroblastoma. Cisplatin was administered at 2 mg/kg i.p. twice a week (Wang et al. 2010). Additionally, we studied the effect of combining ABTL0812 with cisplatin at the indicated doses.
C. Metastasis formation. In order to investigate the effect of ABTL0812 in metastasis formation we used a SH-SY5Y cell line transduced with a luciferase reporter vector. As described above, mice bearing xenograft tumors derived from this cell line were treated with ABTL0812, cisplatin or the combination of both drugs. After ten days of treatment animals were sacrificed and metastasis were assessed ex vivo by monitoring luciferase-expressing cells in lung and liver.

[3] = system: A549 (human lung carcinoma) cell line; experiment: Cell viability (MTT) of ABTL0812 in combination with docetaxel in lung cancer; assay type: cell-based; conditions: Homo sapiens, 72 h, A549, three days, FBS 0.5%, single agent
Experimental: Methods: A549 cells were incubated with increasing concentrations of ABTL0812 (3-300 μM), docetaxel (0.01-100 μM), or a combination of both (subIC50, i.e., 20 μM fixed concentration of ABTL812 and 0.01-100 μM docetaxel) for three days (FBS 0.5%). […] In the denominator, (Dx)1 is for D1“alone” that inhibits a system x %, and (Dx)2 is for D2“alone” that inhibits a system x %.

[4] = system: A549 human lung adenocarcinoma xenograft; assay type: in vivo; conditions: ABTL0812 30 mg/kg/day oral 5 times a week; docetaxel 5 mg/kg i.p. once a week
Experimental: Methods: Mice were injected with 5×10^6 A549 cells in each flank to induce tumor formation. […] ABTL0812 was administered by the oral route at 30 mg/kg/day, 5 times a week. Docetaxel 5 mg/kg was administered intra-peritoneally once a week (Coxon et al. 2012). Tumor volume and body weight were monitorized 3 times a week.

[5] = system: MiaPaca2 (human pancreatic carcinoma); experiment: Cell viability (MTT) of ABTL0812 alone or with gemcitabine in pancreatic cancer; assay type: cell-based; conditions: Homo sapiens, MIA PaCa-2; MiaPaca2, 72h, 0.5% FBS, MTT, single agent
Experimental: Methods: MiaPaca2 cells were seeded in 24-well plates together with gemcitabine (0.01-100 μM), ABTL812 (3-300 μM), or a combination of both (subIC50, i.e., 25 μM fixed concentration of ABTL0812 with 0.01-100 μM gemcitabine) and left in the incubator for 72h (0.5% FBS). Cell viability was studied by the MTT assay and several parameters were determined to evaluate a possible synergism. First the IC50 for each drug alone or the combination was calculated. Then, synergism (CI) was calculated as described above.

[6] = system: MiaPaca2 human pancreatic cancer xenograft; experiment: Human pancreatic xenograft (MiaPaca-2), gemcitabine and Nab-paclitaxel/gemcitabine; assay type: in vivo, Athymic Nude-Foxn1nu female mice; conditions: ABTL0812 120 mg/kg oral 5 times a week; gemcitabine 60 mg/kg, Nab-Paclitaxel 5 mg/kg i.p. 2 times a week (suboptimal chemotherapy dose)
Experimental: It is important to change the site of injection to avoid intestinal necrosis and keep Nab-Paclitaxel and gemcitabine injections as far as possible one from the other in mice abdomen. • Gemcitabine+ABTL0812 (n=10): treated orally with 120 mg/kg of ABTL0812 in 200 μl of distilled water+5% glycerol, 5 times a week and with 60 mg/kg of gemcitabine administered i.p in 100 μl of sterile water, 2 times a week. ABTL0812 was always administered before chemotherapy with the aim of reducing the stress derived from the i.p. injection, that is normally applied as the last administration. • Gemcitabine+Nab-Paclitaxel+ABTL0812 (n=8): treated orally with 120 mg/kg of ABTL0812 in 200 μl of distilled water+5% glycerol, 5 times a week, with 60 mg/kg of gemcitabine administered i.p. in 100 μl of sterile water, 2 times a week and with 5 mg/kg of Nab-Paclitaxel administered i.p. in 230 μl of 0.9% NaCl solution 2 times a week. As in the gemcitabine+Nab-Paclitaxel group, injections where administered in separated areas of the abdomen. […]
Treatment efficacy was assessed by measuring tumor volume three days a week. Additionally, total body weight was monitored three days a week to test the toxicity associated with the treatments in addition to visual examination of signs indicative of clinicopathological symptoms. […]

[7] = system: H157 cells; experiment: Cell viability (MTT) of ABTL0812 in combination with paclitaxel, H157; assay type: cell-based, human; conditions: Homo sapiens, NCI-H157; H157, 48 hours, 0.1% FBS, single agent
Experimental: (§1) Methods: A549 cells were incubated with increasing concentrations of ABTL0812 (3-300 μM), paclitaxel (0.003-1 μM), or a combination of both using subIC50 fixed concentration of ABTL0812 and 0.003-1 μM paclitaxel for 72 hours in DMEM with 0.1% FBS. H157, H1957 and HTB-812 cells were incubated with increasing concentrations of paclitaxel (0.001-10 μM) alone and in combination with subIC50 fixed concentration of ABTL0812 for 48 hours in DMEM with 0.1% FBS. Cell viability was evaluated in all cases by MTT assay and IC50's were calculated for paclitaxel and the combination. The concentrations of the combinations for the different cell lines were:
(§2) Finally, the Combination Index (CI), as described in the previous section, was calculated for the values of paclitaxel IC50.

[8] = system: H1957 cells; experiment: Cell viability (MTT) of ABTL0812 in combination with paclitaxel, H1957; assay type: cell-based, human; conditions: Homo sapiens; H1957, 48 hours, 0.1% FBS, single agent
Experimental: as §1, §2

[9] = system: HTB-812 cells; experiment: Cell viability (MTT) of ABTL0812 in combination with paclitaxel, HTB-812; assay type: cell-based, human; conditions: Homo sapiens; HTB-812, 48 hours, 0.1% FBS, single agent
Experimental: as §1, §2

[10] = system: MDB-DA-231 (human triple negative breast cancer); experiment: Cell viability (MTT) of ABTL0812 alone or with paclitaxel in breast cancer; assay type: cell-based; conditions: Homo sapiens; MDB-DA-231, 48h, 0.5% FBS, MTT, single agent
Experimental: Methods: MDB-DA-231 cells were seeded in 24-well plates together with increasing concentration of paclitaxel (1-100 nM) in the presence of 5, 10 and 20 μM of ABTL0812 (all doses below to an IC25) for 48h (0.5% FBS). Cell viability was studied by the MTT assay and several parameters were determined to evaluate a possible synergism. First the IC50 for each drug alone or the combination was calculated.

[11] = system: LA1-5S neuroblastoma cell line; experiment: Cell viability (crystal violet) of ABTL0812 with retinoic acid, LA1-5S; conditions: 24h
Experimental: (§3) Methods: LA1-5S and SK-N-BE(2) cells were incubated with a subIC50 fixed concentration of ABTL0812 (30 μM), increasing concentrations of 10 μM, 20 μM and 30 μM of retinoic acid or a combination of both. […] Cells were treated for 24h in IMDM with 0.5% FBS. Cell viability was evaluated in all cases by crystal violet assay. Different doses were assessed in six replicates and the results shown are the average of two independent experiments. Statistical analyses were performed according to the T-Test principle with GraphPad Prism® 5.0 software (* p<0.05; ** p<0.01; *** p<0.001)..

[12] = system: SK-N-BE(2) human neuroblastoma cell line; experiment: Cell viability (crystal violet) of ABTL0812 with retinoic acid, SK-N-BE(2); conditions: 24h
Experimental: as §3

Structure (SMILES): N.N.O=C([O-])C1(C(=O)[O-])CCC1.[Pt+2] [Carboplatin]
Body Weight Gain D 1-4 ([1]; ABTL0812 120 mg/kg p.o. days 2-6, 9-13, paclitaxel 15, carboplatin 50 mg/kg i.p. D 2/9): -0.626 g | Biochemistry Creat ([1]; PTX/CP on D 2/9): 8.83 µmol/L | Biochemistry Triglyc ([1]; PTX/CP on D 2/9): 1.35 mmol/L | Biochemistry Urea ([1]; PTX/CP on D 2/9): 9.50 mmol/L | Body Weight Gain D 8-11 ([1]; PTX/CP on D 2/9): -0.450 g | Hematology PLT ([1]; PTX/CP on D 2/9): 790 ×10^3/μL | Hematology RBC ([1]; PTX/CP on D 2/9): 8.40 ×10^6/μL | Hematology WBC ([1]; PTX/CP on D 2/9): 7.09 ×10^3/μL

Structure (SMILES): N.N.[Cl][Pt][Cl] [Cisplatin, reference compound]
Hematocrit ([2]; mouse, in vivo): 37.3 ± 2.7% | RBC ([2]; mouse, in vivo): 6.8 ± 0.9 ×10^6/μL | WBC ([2]; mouse, in vivo): 3.0 ± 0.6 ×10^3/μL | hematological safety ([2]; mouse, in vivo): induced anemia and reduced white blood cell count | metastasis formation in lung and liver ([2]; ten days of treatment, luciferase-expressing cells ex vivo): no significant effect in inhibiting metastasis formation

Structure (SMILES): CC(=O)O[C@@]12CO[C@@H]1C[C@H](O)[C@@]1(C)C(=O)[C@H](O)C3=C(C)[C@@H](OC(=O)[C@H](O)[C@@H](NC(=O)OC(C)(C)C)c4ccccc4)C[C@@](O)([C@@H](OC(=O)c4ccccc4)[C@H]21)C3(C)C [Docetaxel, reference compound]
pIC50 [3]: 5.77 | tumor volume [4]: similarly reduced tumor volume

pIC50 [5]: 4.99
Structure (SMILES): Nc1ccn([C@@H]2O[C@H](CO)[C@@H](O)C2(F)F)c(=O)n1 [Gemcitabine, reference compound]
tumor volume [6]: do not show significant difference in tumor volume compared with vehicle group

pIC50 [7]: 5.38 | pIC50 [8]: 5.43 | pIC50 [10]: 8.06 | Biochemistry Creat ([1]; mouse, in vivo): 9.74 µmol/L | Biochemistry Triglyc ([1]; mouse, in vivo): 1.31 mmol/L | Biochemistry Urea ([1]; mouse, in vivo): 9.50 mmol/L | Hematology PLT ([1]; mouse, in vivo): 1378 ×10^3/μL | Hematology RBC ([1]; mouse, in vivo): 9.59 ×10^6/μL | Hematology WBC ([1]; mouse, in vivo): 6.28 ×10^3/μL
Structure (SMILES): CC(=O)O[C@H]1C(=O)[C@@]2(C)[C@H]([C@H](OC(=O)c3ccccc3)[C@]3(O)C[C@H](OC(=O)[C@H](O)[C@@H](NC(=O)c4ccccc4)c4ccccc4)C(C)=C1C3(C)C)[C@]1(OC(C)=O)CO[C@@H]1C[C@@H]2O [Paclitaxel]
pIC50 [9]: 5.57 | Body Weight Gain D 8-11 ([1]; mouse, in vivo): 0.442 g

Structure (SMILES): CC1=C(/C=C/C(C)=C/C=C/C(C)=C/C(=O)O)C(C)(C)CCC1 [retinoic acid]
cytotoxicity ([11]; LA1-5S, 30 μM ABTL0812, retinoic acid 10-30 μM): even lower | cell viability ([11]; LAI-5S cells, combination with low concentration of ABTL0812): 82.8% | cell viability ([12]; SK-N-BE(2) cells, combination with low concentration of ABTL0812): 70.4% | cytotoxicity ([12]; SK-N-BE(2), 30 μM ABTL0812, retinoic acid 10-30 μM): even lower
